Laboratory results: patent publication US7955618B2, “Composition for treatment of inflammatory disorders” (Enceladus Pharmaceuticals B.V., priority 2001, dated 2011)

Tests used:
[1] = test system: rat adjuvant arthritis model (paw inflammation); test: Rat adjuvant arthritis model, visual paw inflammation score; format: in vivo, Lewis rats; settings: for average inflammation score: day 15 until day 21, 6.5±0.56 on day 14, daily saline max 10.6±1.3 on day 20; for effect on course of the disease (paw inflammation): single injection, doses equal to liposomal drug, p>0.05 Kruskall-Wallis
Protocol: Lewis rats were immunized subcutaneously at the tail base with heat-inactivated Mycobacterium tuberculosis in incomplete Freund's adjuvant.
Assessment of the disease was performed by visually scoring paw inflammation severity, maximum score 4 per paw, and measuring disease-induced body weight loss. […] Rats were treated when the average score >6 (at day 14 or 15 after disease induction).

[2] = test system: AT-EAE (T cells and macrophages in spinal cord); settings: 50 mg/kg i.v. at 18 h and 6 h before perfusion
Protocol: Adoptive Transfer Experimental Autoimmune Encephalomyelitis (AT-EAE) was induced in female Lewis rats by intravenous injection of 10^7 MBP-specific T cells.
10 mg/kg prednisolone phosphate containing liposomes, as prepared according to Example I, were applied intravenously at 42 hours and 18 hours prior to sacrifice. Another group received 50 mg/kg methylprednisolone intravenously at 18 hours and 6 hours before perfusion. Control rats received empty liposomes and/or saline at equivalent time points.
T cells or macrophages in spinal cord were detected immunohistochemically in paraffin embedded tissue and apoptosis was assessed by the TUNEL assay and by morphological criteria. Student t test for grouped data was used for statistical analysis.

| Molecule | average inflammation score ([1]; 10 mg/kg daily for 7 days) | average inflammation score ([1]; 20 mg/kg daily for 7 days) | effect on course of the disease (paw inflammation) [1] | effect on course of the disease (paw inflammation) ([1]; listed as unencapsulated prednisolone phosphate) | clinical score ([2]; controls 3.2±0.3) | macrophage infiltration in spinal cord ([2]; controls 78±37) | T cell infiltration in spinal cord ([2]; controls 115±51) | rate of T cell apoptosis in spinal cord tissue ([2]; mean±SD, control 16.1±4.3%) |
| --- | --- | --- | --- | --- | --- | --- | --- | --- |
| prednisolone disodium phosphate [Unencapsulated prednisolone phosphate] | around 5.0 | around 5.0 | did not significantly alter the course of the disease | No effect | – | – | – | – |
| C[C@H]1C[C@@H]2[C@H]([C@@H](O)C[C@@]3(C)[C@H]2CC[C@]3(O)C(=O)CO)[C@@]2(C)C=CC(=O)C=C12 [Methylprednisolone, methylprednisolone] | – | – | – | – | 3.2±0.3 | 66±25 macrophages/mm^2 | 96±19 T cells/mm^2 | 30.8±8.0% |
